Measurements published in patent US20040097376A1, “Substituted aryl ketones and their use as herbicides” (priority 2000, published 2004).

Columns and labels:
weeds [1] = experiment: Post-emergence test (Example B), effect on weeds; type: in vivo; conditions: test plants 5-15 cm high sprayed, assessed after three weeks
Protocol: To produce an expedient preparation of active substance, 1 part by weight of active substance is mixed with the stated amount of solvent, the stated amount of emulsifier is added, and the concentrate is diluted with water to the required concentration.
The active substance preparation is used to spray test plants which are 5-15 cm high in such a way that the respective desired application rate of active substance per unit area is achieved. The concentration of the spray liquor is chosen so that the respective required application rates of active substance are achieved in 1000 l of water/ha.
After three weeks, the degree of damage to the plants is assessed in % damage by comparison with the development of the untreated control. The meanings are:
0%=no effect (as untreated control)

weeds [2] = experiment: Pre-emergence test (Example A), effect on weeds; type: in vivo; conditions: soil sprayed 24 hours after sowing, assessed after three weeks
Protocol: To produce an expedient preparation of active substance, 1 part by weight of active substance is mixed with the stated amount of solvent, the stated amount of emulsifier is added and the concentrate is diluted with water to the required concentration.
Seeds of the test plants are sown in normal soil. After 24 hours, the soil is sprayed with the active substance preparation in such a way that the respective desired application rate of active substance per unit area is achieved. The active substance concentration in the spray liquor is selected so that the respective required application rate of active substance is achieved with 1000 litres of water per hectare.
After three weeks, the degree of damage to the plants is assessed in % damage by comparison with the development of the untreated control.

[3] = logP determination by HPLC on reversed phase column (C 18), EEC Directive 79/831 Annex V.A8; type: physicochemical; conditions: reversed phase C18 HPLC column; pH=2.3
Protocol: Determination of the logP values indicated in Table 1 took place in accordance with EEC Directive 79/831 Annex V.A8 by HPLC (high performance liquid chromatography) on a reversed phase column (C 18). Temperature: 43° C. (a) Eluent for determination in the acidic range: 0.1% aqueous phosphoric acid, acetonitrile; linear gradient from 10% acetonitrile to 90% acetonitrile—corresponding measured results are marked with ^a) in Table 1. Calibration took place with unbranched alkan-2-ones (having 3 to 16 carbon atoms) whose logP values are known (determination of the logP values on the basis of the retention times by linear interpolation between two consecutive alkanones).

Row | chromatographic logP [3] | SMILES | effect on weeds (degree of damage vs untreated control) (weeds [1]) | effect on weeds (degree of damage vs untreated control) (weeds [2])
1 | – | N#C/N=C1\SCCN1Cc1c(Cl)ccc(C(=O)C2C(=O)CCCC2=O)c1Cl [Example 1, 3-[2,6-dichloro-3-[(2,6-dioxocyclohexyl)carbonyl]benzyl]-1,3-thiazolidin-2-ylidenecyanamide] | strong effect on weeds | strong effect on weeds
2 | 2.54 | N#C/N=C1\SCCN1Cc1cc(C(F)(F)F)ccc1C(=O)C1C(=O)CCCC1=O [Example 2, 3-[2-[(2,6-dioxocyclohexyl)carbonyl]-5-trifluoromethyl-benzyl]-1,3-thiazolidin-2-ylidenecyanamide] | – | strong effect on weeds
3 | 2.01 | N#C/N=C1\SCCN1Cc1cc(C(F)(F)F)ccc1C(=O)O [Example (II-2), 2-[(2-cyanoimino-1,3-thiazolidin-3-yl)methyl]-4-trifluoro-methylbenzoic acid] | – | –
4 | 2.53 | COC(=O)c1ccc(C(F)(F)F)cc1CN1CCS/C1=N\C#N [Example (IIa-2), methyl 2-[(2-cyanoimino-1,3-thiazolidin-3-yl)methyl]-4-trifluoromethylbenzoate] | – | –
